PMC11317440, “Soloxolone para-methylanilide effectively suppresses aggressive phenotype of glioblastoma cells including TGF-β1-induced glial-mesenchymal transition in vitro and inhibits growth of U87 glioblastoma xenografts in mice” (Frontiers in Pharmacology, 2024)
pIC50: −log10 of the molar value.

Assays:
[1] = tested on: U87 glioblastoma cells; assay: MTT cell viability assay, U87 cells, 48 h; format: cell-based, human
Experimental: Cells were seeded in quadruplicate in 96-well plates at 10,000 cells/well and allowed to adhere overnight. The medium was then replaced with serum-free DMEM containing increasing concentrations of soloxolone amides for 48 h. After incubation, 3-(4,5-dimethylthiazol-2-yl)-2,5-diphenyltetrazolium bromide (MTT dye) was added at a final concentration of 0.5 mg/mL and left for 2 h. The resulting formazan crystals were dissolved in DMSO and the optical density was measured at 570 nm using a Multiscan RC plate reader (Thermo LabSystems, Helsinki, Finland).

[2] = tested on: TGF-β1-induced U87 cells; assay: Cell morphology (cell size) of TGF-β1-induced U87 cells; format: cell-based, human; settings: TGF-β1 50 ng/mL, non-toxic concentrations, 48 h
Experimental: After seeding at a concentration of 5,000 cells/well in triplicate in 96-well plates and incubating overnight, U87 and U118 cells were exposed to TGF-β1 (50 ng/mL) and non-toxic concentrations of soloxolone amides for 48 h. An EVOS XL Core microscope with an integrated CMOS camera (Thermo Fisher Scientific, USA) was then used to examine cell morphology at ×20 magnification. Aspect ratio (AR) and area were quantified for at least 150 cells in each experimental group using ImageJ software (NIH, USA).

[3] = tested on: TGF-β1-treated U87 cells; assay: ECM adhesion assay (Matrigel), U87 cells; format: cell-based, human; settings: TGF-β1 50 ng/mL, 7 50 nM, 48 h
Experimental: Second, to assess cell adhesion to the extracellular matrix (ECM), an ECM adhesion assay was performed according to previously published method ([Guan et al., 2015]; [Hu et al., 2019]). Briefly, U87 cells were pretreated with TGF-β1 (50 ng/mL) and compound 7 (50 nM) for 48 h, and then seeded in 96-well plates coated with Matrigel (BD Biosciences, Bedford, MA, USA) at a concentration of 30,000 cells for 1 h (n = 3). After that, the wells were washed to remove non-adherent cells, adherent cells were fixed with formaldehyde, stained with crystal violet dye, and analyzed as described above.

[4] = tested on: TGF-β1-treated U87 cells; assay: Transwell migration (xCELLigence), U87 cells; format: cell-based, human; settings: U87, 7 50 nM, TGF-β1 50 ng/mL, at 72 h
Experimental: To perform transwell migration, U87 cells were pretreated with TGF-β1 (50 ng/mL) and compound 7 (50 nM) for 48 h. Subsequently, 250,000 cells were placed in the upper chamber of the CIM-16 xCELLigence plate in serum-free DMEM supplemented with compound 7 and TGF-β1 (n = 4), while the lower chamber was filled with DMEM containing 10% FBS. Cell migration was monitored for 72 h using the xCELLigence RTCA DP system (ACEA Biosciences Inc., San Diego, CA, USA). The electrodes placed under the porous membrane detected changes in resistance, which were then converted into cell indices proportional to the number of migrating cells.

[5] = tested on: TGF-β1-treated U118 cells; assay: Scratch (wound closure) assay, U118 cells; format: cell-based, human; settings: U118, 7 50 nM, TGF-β1 50 ng/mL
Experimental: For the scratch assay, U118 cells were seeded in triplicate in 24-well plates at a concentration of 300,000 cells/well and allowed to adhere overnight. The cells were then scratched with a 10 μL plastic pipette tip, washed with PBS, and covered with serum-free DMEM containing TGF-β1 (50 ng/mL) and compound 7 (50 nM). Scratches were photographed at 0, 24, and 48 h using an EVOS XL Core microscope. Wound closure was determined by estimating the scratch area at each time point using ImageJ software and normalizing to the scratch area at 0 h.

[6] = tested on: N-cadherin, fibronectin, Slug, OLIG2 expression in TGF-β1-induced U87 cells; assay: qRT-PCR of GMT markers in U87 cells; format: cell-based, human; settings: 48 h
Experimental: Total RNA was extracted using TRIzol Reagent (Ambion, Austin, TX, USA) according to the manufacturer’s protocol. Subsequently, the first strand cDNA was synthesized from 4 μg of total RNA using an oligo (dT)18 primers and M-MuLV-RH revertase (Biolabmix, Novosibirsk, Russia). Finally, RT-qPCR was performed using specific primers (Table 1) and BioMaster SYBR Blue reagent kit (Biolabmix, Novosibirsk, Russia). Relative expression was determined by normalization to the housekeeping gene HPRT using the 2^−ΔΔCT method (Livak and Schmittgen 2001).

[7] = tested on: U118 cells; assay: Colony formation assay, U118 cells; format: cell-based; settings: Homo sapiens, 240 h, 10 days
Experimental: U87, U118 and EPNT-5 cells were seeded at a density of 200 cells/well in 96-well plates and treated with increasing concentrations of compound 7 (0–1,000 nM) dissolved in 10% FBS-containing DMEM (n = 5). On day 10, colonies were fixed with 4% formaldehyde and stained with crystal violet dye (0.1% w/v). Images were captured using the iBright 1,500 Imaging System (Invitrogen, USA) and the area of colonies with a minimum diameter of 100 µm was calculated using ImageJ. In the case of overlapping colonies, their total area was calculated. Finally, the area of the formed cell colonies was summed and normalized to the total colony area in the control.

[8] = tested on: U87 primary tumorspheres; assay: Primary tumorsphere growth, U87; format: cell-based, human
Experimental: For evaluation of spheroid growth, the bottom of the 96-well plate was covered with 1% agarose for non-adherent conditions. U87 cells (5,000 cells/well) were then seeded and allowed to form spheroids for 24 h, after which increasing concentrations of compound 7 (0–1,000 nM) were added (n = 8). Every other day of the 10-day experiment, fresh medium supplemented with compound 7 was added to half of the medium, and the spheroids were photographed using a camera-equipped ZEISS Primo Vert microscope (Carl Zeiss Microscopy GmbH, Jena, Germany). To assess the formation of secondary tumorspheres, cells were dissociated from primary tumorspheres after 4 days of compound 7 stimulation using TrypLE Express and were then seeded into agarose-coated 96-well plates (n = 8). On day 3, the resulting secondary spheroids were examined microscopically. Primary and secondary spheroid areas were quantified using ImageJ.

[9] = U87 primary tumorspheres, 7 1,000 nM

Cc1ccc(NC(=O)[C@@]2(C)CC[C@]3(C)CC[C@]4(C)[C@H](C(=O)C=C5[C@@]6(C)C=C(C#N)C(=O)C(C)(C)C6CC[C@]54C)[C@@H]3C2)cc1 (some centres unmarked) [compound 7, N-p-tolyl-2-cyano-3,12-dioxo-18βH-olean-9(11),1(2)-dien-30-amide]
relative cytotoxicity ([1]; 48 h of incubation, U87): high | pIC50 ([1]; Homo sapiens, U-87 MG, 48 h): 6.79 | MNTC ([1]; Homo sapiens, U-87 MG, 48 h, read-out: non-toxic concentration that reduced U87 cell viability by less than 10%): 50 nM | effect on size/morphology of TGF-β1-induced U87 cells [2]: restored their morphological characteristics to the control cells | TGF-β1-induced adhesion of U87 cells to Matrigel [3]: effectively suppressed this induction to almost control levels | suppression of transwell migration compared to cells stimulated with TGF-β1 alone [4]: 1.7 fold | effect on TGF-β1-enhanced wound closure at 24 h ([5]; 24 h): completely reversed | reduction of the effect of TGF-β1 on wound closure at 48 h ([5]; 48 h): 34% | upregulation of OLIG2 ([6]; TGF-β1-induced U87 cells, 7 50 nM): 2 fold | reduction of N-cadherin expression compared to TGF-β1-stimulated cells ([6]; U87, 7 50 nM, TGF-β1 50 ng/mL): 67.6% | reduction of Slug expression compared to TGF-β1-stimulated cells ([6]; U87, 7 50 nM, TGF-β1 50 ng/mL): 35.8% | reduction of fibronectin expression compared to TGF-β1-stimulated cells ([6]; U87, 7 50 nM, TGF-β1 50 ng/mL): 39.2% | inhibition at 0.05 µM ([7]; U118, 7 50 nM): 26.8% | inhibition at 0.1 µM ([7]; U118, 7 100 nM): 42.8% | increase of spheroid growth compared to control ([8]; U87 primary tumorspheres, 7 50 nM, p-value <0.05): 21% | increase of spheroid growth compared to control ([8]; U87 primary tumorspheres, 7 100 nM, not statistically significant): 10.4% | spheroid growth ([8]; U87 primary tumorspheres, 7 450 nM): stopping it after 4 days | reduction of tumorsphere size compared to control by day 10 [8, 9]: 28.6% | spheroid growth [8, 9]: completely blocking it | concentration causing a large-scale reduction of spheroids ([8]; U87 tumorspheres): 1 µM
